Results: US20230301948A1, “REDUCTION OF VIRAL INFECTIONS” (PHOXGEN LIMITED, priority 2020, published 2023)
Where two headings read alike, the source gives them in different places. Marks after values point to notes of the source that are not given here.

Key:
[1] = target: T1, cathepsin L protease (Homo sapiens, UniProt P07711); type: biochemical
T1 construct: purchased BPS Bioscience

[2] = target: T2, SpikeS1-ACE2 interaction (UniProt P0DTC2+Q9BYF1); experiment: biochemical; type: binding, SARS-CoV-2; conditions: read-out: Percentage inhibition (wrt 100% initial activity)
T2 construct: Rabbit Fc-tagged SARS-Cov-2 Spike S1 RBD; purchased Cayman Chemical Company

T1 sequence (P07711 114-333): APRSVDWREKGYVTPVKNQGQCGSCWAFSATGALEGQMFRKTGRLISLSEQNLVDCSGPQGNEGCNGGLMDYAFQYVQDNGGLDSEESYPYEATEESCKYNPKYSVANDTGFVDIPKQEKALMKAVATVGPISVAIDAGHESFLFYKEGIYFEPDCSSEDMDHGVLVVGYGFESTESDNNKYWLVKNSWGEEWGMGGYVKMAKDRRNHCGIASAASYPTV

## CC(C)C[C@H](NC(=O)[C@H]1O[C@@H]1C(=O)O)C(=O)NCCCCN=C(N)N [Composition E-64, E-64]
[1]; 0.0001 µM
  Percentage inhibition: -15.5%
[1]; 0.001 µM
  Percentage inhibition: -1.1%
[1]; 0.01 µM
  Percentage inhibition: 17.2 ** %
[1]; 0.1 µM
  Percentage inhibition: 56.3 ** %

## Cc1cc(O)c2c(c1)C(=O)c1cc(O)cc(O)c1C2=O [Emodin]
[2]; 0.01 µg/ml
  inhibition at 0.01 µg/mL: 35.5%
[2]; 0.1 µg/ml
  inhibition at 0.1 µg/mL: 38.9%
[2]; 1 µg/ml
  inhibition at 1 µg/mL: 44.3%
[2]; 10 µg/ml
  inhibition at 10 µg/mL: 48.9%
[2]; 50 µg/ml
  inhibition at 50 µg/mL: 62.8%
